Reference: patent publication US20060063210A1, “Histone deacetylase whole cell enzyme assay” (Methylgene, Inc., priority 2004, published 2006)
pIC50: −log10 of the molar value.

Columns and labels:
recombinant Sirt1 = target: T1, recombinant Sirt1 (Homo sapiens, UniProt Q96EB6); experiment: recombinant Sirt1 enzyme assay in vitro (Fluor-de-Lys-SirT1 substrate); type: biochemical; settings: TSA up to 10 uM
T1 construct: purchased Biomol
T1 sequence (Q96EB6 1-747): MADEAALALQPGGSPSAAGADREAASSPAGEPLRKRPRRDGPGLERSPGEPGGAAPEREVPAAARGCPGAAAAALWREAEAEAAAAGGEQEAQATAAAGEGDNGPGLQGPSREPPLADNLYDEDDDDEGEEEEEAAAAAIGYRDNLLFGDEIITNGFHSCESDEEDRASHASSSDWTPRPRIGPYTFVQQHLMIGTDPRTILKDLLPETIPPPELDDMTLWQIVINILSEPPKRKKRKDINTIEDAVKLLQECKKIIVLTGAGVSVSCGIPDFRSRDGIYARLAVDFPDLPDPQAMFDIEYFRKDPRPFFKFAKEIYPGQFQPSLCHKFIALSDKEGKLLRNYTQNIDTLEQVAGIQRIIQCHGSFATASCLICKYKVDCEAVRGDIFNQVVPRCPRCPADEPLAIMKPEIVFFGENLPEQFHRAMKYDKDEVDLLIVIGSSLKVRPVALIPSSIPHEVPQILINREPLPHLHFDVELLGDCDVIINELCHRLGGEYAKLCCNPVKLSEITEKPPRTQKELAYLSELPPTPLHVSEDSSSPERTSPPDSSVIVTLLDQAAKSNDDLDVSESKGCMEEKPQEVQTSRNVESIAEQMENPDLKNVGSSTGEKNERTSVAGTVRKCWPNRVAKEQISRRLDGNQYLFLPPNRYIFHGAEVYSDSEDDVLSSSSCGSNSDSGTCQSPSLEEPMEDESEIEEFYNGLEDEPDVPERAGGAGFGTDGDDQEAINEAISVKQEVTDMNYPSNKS
Excerpt: (§1) Human SirT1, 2, 3 recombinant enzymes were purchased from Biomol (Biomol, Plymouth Meeting, Philadelphia).
(§2) Reaction is read as described in Example 3.

recombinant Sirt2 = target: T2, recombinant Sirt2 (Homo sapiens, UniProt Q8IXJ6); experiment: recombinant Sirt2 enzyme assay in vitro (Fluor-de-Lys-SirT2 substrate); type: biochemical
T2 construct: purchased Biomol
T2 sequence (Q8IXJ6 1-389): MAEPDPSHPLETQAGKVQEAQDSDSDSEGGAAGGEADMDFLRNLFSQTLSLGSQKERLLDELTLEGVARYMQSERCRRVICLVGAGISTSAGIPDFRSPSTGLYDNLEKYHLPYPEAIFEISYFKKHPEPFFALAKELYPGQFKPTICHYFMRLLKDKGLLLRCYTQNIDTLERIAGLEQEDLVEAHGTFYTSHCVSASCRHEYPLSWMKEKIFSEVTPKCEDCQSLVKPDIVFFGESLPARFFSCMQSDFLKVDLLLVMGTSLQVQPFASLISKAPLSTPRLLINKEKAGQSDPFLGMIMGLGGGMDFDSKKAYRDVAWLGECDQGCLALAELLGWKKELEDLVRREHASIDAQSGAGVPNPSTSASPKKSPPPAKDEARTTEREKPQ
Excerpt: as §1, §2

recombinant Sirt3 = target: T3, recombinant Sirt3 (Homo sapiens, UniProt Q9NTG7); experiment: recombinant Sirt3 enzyme assay in vitro (Fluor-de-Lys-SirT2 substrate); type: biochemical
T3 construct: purchased Biomol
T3 sequence (Q9NTG7 1-399): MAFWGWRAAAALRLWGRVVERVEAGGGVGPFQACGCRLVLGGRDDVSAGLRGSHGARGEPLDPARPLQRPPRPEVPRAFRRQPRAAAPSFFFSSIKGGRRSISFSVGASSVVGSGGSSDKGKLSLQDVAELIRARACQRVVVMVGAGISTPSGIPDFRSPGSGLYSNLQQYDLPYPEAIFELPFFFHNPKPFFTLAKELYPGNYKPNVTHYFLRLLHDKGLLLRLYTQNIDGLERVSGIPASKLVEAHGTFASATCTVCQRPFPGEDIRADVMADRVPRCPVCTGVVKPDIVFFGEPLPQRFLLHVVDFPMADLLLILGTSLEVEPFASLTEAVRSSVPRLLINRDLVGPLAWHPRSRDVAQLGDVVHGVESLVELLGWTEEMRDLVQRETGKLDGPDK
Excerpt: as §1, §2

SirT1 (HCT116 cells) = target: T4, SirT1 (HCT116 cells) (Homo sapiens, UniProt Q96EB6); experiment: whole cell sirtuin (SirT1) activity in HCT116 cells with Fluor-de-Lys-SirT1 substrate; type: cell-based
T4 construct: endogenous in cells; host or cells: HCT116
T4 sequence (Q96EB6 1-747): T1 sequence (Q96EB6 1-747)
Excerpt: Cultured cells (HCT116) were trypsinized and counted by trypan blue exclusion. Live cells (2×10^5) were distributed to each well of the 96-well plate. […] Independently, we fixed concentrations of either Fluor-de-Lys-SirT1 substrate or Fluor-de-Lys-SirT2 in whole cells and analyzed the effect of exogeneous NAD+ concentration on whole cell sirtuin activity (FIG. 7b). […] Therefore the reading was done immediately after stopping.
Cultured HCT116 cells were counted and distributed to each well of the 96-well plate. […] After addition of Sirtuin substrate (Fluor-de-Lys-SirT1, 500 uM) or HDAC substrate Boc-Lys(Ac)-AMC (300 uM), the cells are further incubated for an additional 2 hours. Reaction was stopped and read as described in Examples 3 and 6. […] This observation is consistent with our finding in Example 7 that TSA can not inhibit class III (Sirtuins) in vitro.

[1] = target: T5, SirT1 (mouse white blood cells) (Mus musculus, UniProt Q923E4); experiment: ex vivo whole cell Sirt1 activity in mouse white blood cells; type: cell-based; settings: 90 minute incubation, 200 uM Fluor-de-Lys Sirt1
T5 construct: from tissue; host or cells: mouse white blood cells
T5 sequence (Q923E4 1-737): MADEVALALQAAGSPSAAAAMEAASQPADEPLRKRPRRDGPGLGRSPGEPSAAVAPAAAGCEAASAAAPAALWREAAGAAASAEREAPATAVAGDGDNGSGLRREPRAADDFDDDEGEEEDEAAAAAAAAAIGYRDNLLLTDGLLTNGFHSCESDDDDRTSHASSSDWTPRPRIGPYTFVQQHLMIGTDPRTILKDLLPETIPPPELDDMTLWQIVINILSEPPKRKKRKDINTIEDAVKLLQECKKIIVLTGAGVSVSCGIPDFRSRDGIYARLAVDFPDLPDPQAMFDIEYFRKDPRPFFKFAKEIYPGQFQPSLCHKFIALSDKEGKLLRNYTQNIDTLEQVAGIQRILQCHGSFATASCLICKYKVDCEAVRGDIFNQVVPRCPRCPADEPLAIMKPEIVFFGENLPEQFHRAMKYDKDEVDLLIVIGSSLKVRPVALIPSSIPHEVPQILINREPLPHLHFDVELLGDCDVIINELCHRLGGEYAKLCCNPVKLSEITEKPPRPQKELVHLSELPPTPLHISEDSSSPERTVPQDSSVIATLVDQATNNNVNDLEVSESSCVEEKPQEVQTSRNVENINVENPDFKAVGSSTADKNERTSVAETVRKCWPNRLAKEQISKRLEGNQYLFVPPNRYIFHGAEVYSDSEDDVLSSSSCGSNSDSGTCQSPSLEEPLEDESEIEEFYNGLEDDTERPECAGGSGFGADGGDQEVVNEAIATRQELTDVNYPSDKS
Procedure: Mouse blood was collected in heparin tubes. Erythrocytes were lysed with five volumes of Erythrocyte Lysis buffer (EL, Qiagen Canada Inc, Mississauga, Ontario). White blood cells were recovered by centrifugation (400×g for 5 min), washed and resuspended in RPMI (+10% FBS), then counted. […] After 90 minute incubation, reaction was stopped with one volume of assay buffer (50 mM Tris-Ci pH 8.0, 137 mM NaCl, 2.7 mM KCl, 1 mM MgCl2) supplemented with 1× Developer II (BioMol, Plymouth Meeting, Philadelphia) and 1% NP40.

HDAC (A549 cells) = experiment: whole cell deacetylase (HDAC) assay in A549 cells with Boc-Lys(Ac)-AMC; type: cell-based, human; settings: pre-incubated with inhibitors 16 hours, mean of at least 2 experiments
Procedure: (§3) Freshly trypsinized cells were dispensed into 96-well black Costar E1A/RIA plates (Corning Inc., Corning, N.Y.). Small molecule substrate Boc-Lys(Ac)-AMC (Bachem Biosciences Inc., King of Prussia, Philadelphia) was added to cell suspension with the final concentration of 300 uM. Cells were placed in 37° C. incubator with 5% CO2 for 90 minutes. Reaction was stopped by adding a freshly prepared Flouor-de-Lys™ deleveloper (Biomol, Plymouth Meeting, Philadelphia) with 1 uM TSA (Biomol) in assay buffer (25 mM Tris, HCl pH8.0, 137 mM NaCl, 2.7 mM KCl, 1 mM MgCl2) plus 1% NP-40. With the presence of 1% NP-40, both excellular and intracellular HDAC activity was measured in cultured cells altogether.
(§4) HDAC enzyme assay in intact cells was carried out as described in Example 3.

HDAC (Du145 cells) = experiment: whole cell deacetylase (HDAC) assay in Du145 cells with Boc-Lys(Ac)-AMC; type: cell-based, human; settings: pre-incubated with inhibitors 16 hours, mean of at least 2 experiments
Procedure: as §3, §4

HDAC (HCT116 cells) = experiment: whole cell deacetylase (HDAC) assay in HCT116 cells with Boc-Lys(Ac)-AMC; type: cell-based, human; settings: pre-incubated with inhibitors 16 hours, mean of at least 2 experiments
Procedure: as §3, §4
Cultured HCT116 cells were counted and distributed to each well of the 96-well plate. […] After addition of Sirtuin substrate (Fluor-de-Lys-SirT1, 500 uM) or HDAC substrate Boc-Lys(Ac)-AMC (300 uM), the cells are further incubated for an additional 2 hours. Reaction was stopped and read as described in Examples 3 and 6.

HDAC (293T cells) = experiment: whole cell deacetylase (HDAC) assay in 293T cells with Boc-Lys(Ac)-AMC; type: cell-based, human; settings: pre-incubated with inhibitors 16 hours, mean of at least 2 experiments
Procedure: as §3, §4

HDAC (Jurkat T cells) = experiment: whole cell deacetylase (HDAC) assay in Jurkat T cells with Boc-Lys(Ac)-AMC; type: cell-based, human; settings: pre-incubated with inhibitors 16 hours, mean of at least 2 experiments
Procedure: as §3, §4

[2] = tested on: HDAC (human white blood cells); experiment: ex vivo inhibition of whole cell HDAC activity in human white blood cells; type: cell-based; settings: 16 hours incubation
Procedure: Whole blood (human or mouse) was centrifuged at 2500 rpm for 10 minutes at ambient temperature in a Sorvall RT-7 centrifuge (Mandel Scientific Co., Guelph, Ontario). Plasma was removed and buffy coat was collected. Five volumes of Erythrocyte Lysis Buffer (EL) (Qiagen Canada Inc., Mississauga, Ontario) were added to buffy coat. Buffy coat was incubated on ice for 20 minutes before it was centrifuged at 400 g for 10 minutes at 4° C. Supernatant was removed and buffy coat was washed twice with EL buffer and re-centrifugation. Buffy coat was resuspended in RPMI media and cells (white blood cells) were counted with trypan blue exclusion.

## Cc1ccc(C(=O)Nc2ccc(S(=O)(=O)O)c3cc(S(=O)(=O)O)cc(S(=O)(=O)O)c23)cc1NC(=O)c1cccc(NC(=O)Nc2cccc(C(=O)Nc3cc(C(=O)Nc4ccc(S(=O)(=O)O)c5cc(S(=O)(=O)O)cc(S(=O)(=O)O)c45)ccc3C)c2)c1 [suramin]
Recombinant Sirt1
  inhibition of recombinant Sirt1 in vitro: inhibits
Recombinant Sirt2; TSA up to 10 uM
  inhibition of recombinant Sirt2 in vitro: inhibits
Recombinant Sirt2; substrate FldSirt2, 45 minutes, read-out: IC50 against recombinant Sirt2
  pIC50: 4.85
Recombinant Sirt3
  inhibition of recombinant SirT3 in vitro: inhibits
Recombinant Sirt3; substrate FldSirt2, 45 minutes, read-out: IC50 against recombinant Sirt3
  pIC50: 3.24
SirT1 (HCT116 cells); HCT116 cells, 1.5 hours pre-incubation, Fluor-de-Lys-SirT1 500 uM
  inhibition of whole cell SirT1 activity: inihibits whole cell SirT1 activity in a dose-dependent manner
[1]
  inhibition of SirT1 in whole mouse white blood cells: inhibits SirT1 enzymes in whole white blood cells

## NC(=O)c1cccnc1 [nicotinamide]
SirT1 (HCT116 cells); HCT116 whole cells
  quenching of the whole cell sirtuin reaction: ineffective at quenching the reaction

## NC(=O)c1ccc[n+]([C@@H]2O[C@H](COP(=O)([O-])OP(=O)(O)OC[C@H]3O[C@@H](n4cnc5c(N)ncnc54)[C@H](O)[C@@H]3O)[C@@H](O)[C@H]2O)c1 [NAD+]
SirT1 (HCT116 cells); HCT116 cells, fixed Fluor-de-Lys-SirT1 or Fluor-de-Lys-SirT2 substrate
  effect of exogenous NAD+ on whole cell sirtuin activity: no effect on whole cell sirtuin activity

## O=C(/C=C/c1ccc(CN(CCO)CCc2c[nH]c3ccccc23)cc1)NO [LAQ-824]
HDAC (A549 cells)
  pIC50: 7.70
HDAC (Du145 cells)
  pIC50: 7.30
HDAC (HCT116 cells)
  pIC50: 7.22
HDAC (293T cells)
  pIC50: 7.40
HDAC (Jurkat T cells)
  pIC50: 7.40
[2]
  inhibition of whole cell HDAC activity in human white blood cells: dose-dependent inhibition
